Source: patent publication US4147861A, “1N-(α-Hydroxy-ω-aminoalkanoyl)- 6'N-methyl-3',4'-dideoxykanamycin B and the production thereof” (Zaidan Hojin Biseibutsu Kagaku Kenkyu Kai, priority 1977, dated 1979)

Columns and labels:
[1] = tested on: Escherichia coli LA290 R64; assay: Minimum inhibitory concentration, serial dilution method on nutrient agar; type: cell-based; details: LA290R64, 18 h, read-out: Minimum Inhibitory Concentrations
[2] = tested on: Pseudomonas aeruginosa 99; assay: as above; type: cell-based; details: 37° C., 18 hours, read-out: Minimum Inhibitory Concentrations
[3] = tested on: Corynebacterium bovis 1810; assay: as above; type: cell-based; details: Corynebacterium bovis, 1810, 18 h, read-out: Minimum Inhibitory Concentrations
[4] = tested on: Pseudomonas aeruginosa No. 12; assay: as above; type: cell-based; details: Pseudomonas aeruginosa, NO.12, 18 h, read-out: Minimum Inhibitory Concentrations
[5] = tested on: Proteus vulgaris OX 19; assay: as above; type: cell-based; details: Proteus vulgaris, OX19, 18 h, read-out: Minimum Inhibitory Concentrations
[6] = tested on: Staphylococcus aureus; assay: as above; type: cell-based; details: 37° C., 18 hours, read-out: Minimum Inhibitory Concentrations
[7] = tested on: Bacillus subtilis PCI 219; assay: as above; type: cell-based; details: PCI219, 37° C., 18 hours, read-out: Minimum Inhibitory Concentrations
[8] = tested on: Pseudomonas aeruginosa TI-13; assay: as above; type: cell-based; details: TI13; Pseudomonas aeruginosa TI-13; 37° C., 18 hours; read-out: Minimum Inhibitory Concentrations
[9] = tested on: Sarcina lutea PCI 1001; assay: as above; type: cell-based; details: Micrococcus luteus, PCI1001, 18 h, read-out: Minimum Inhibitory Concentrations
[10] = tested on: Salmonella typhosa T-63; assay: as above; type: cell-based; details: Salmonella enterica, 18 h, read-out: Minimum Inhibitory Concentrations
[11] = tested on: Salmonella enteritidis 1891; assay: as above; type: cell-based; details: Salmonella enterica, ENTERITIDIS, 18 h, read-out: Minimum Inhibitory Concentrations
[12] = tested on: Escherichia coli K-12 R5; assay: as above; type: cell-based; details: K12R5, 18 h, read-out: Minimum Inhibitory Concentrations
[13] = tested on: Klebsiella pneumoniae PCT 602; assay: as above; type: cell-based; details: Klebsiella pneumoniae, PCT602, 18 h, read-out: Minimum Inhibitory Concentrations
[14] = tested on: Bacillus subtilis NRRL B-558; assay: as above; type: cell-based; details: NRRLB558, 37° C., 18 hours, read-out: Minimum Inhibitory Concentrations
[15] = tested on: Staphylococcus aureus FDA 209P; assay: as above; type: cell-based; details: FDA209P, 37° C., 18 hours, read-out: Minimum Inhibitory Concentrations
[16] = tested on: Staphylococcus aureus Terajima; assay: as above; type: cell-based; details: 37° C., 18 hours, read-out: Minimum Inhibitory Concentrations
[17] = tested on: Escherichia coli W677; assay: as above; type: cell-based; details: Escherichia coli, W677, 18 h, read-out: Minimum Inhibitory Concentrations
[18] = tested on: Pseudomonas aeruginosa GN315; assay: as above; type: cell-based; details: Pseudomonas aeruginosa GN315; 37° C., 18 hours; read-out: Minimum Inhibitory Concentrations
[19] = tested on: Shigella dysenteriae JS 11910; assay: as above; type: cell-based; details: JS11910, 18 h, read-out: Minimum Inhibitory Concentrations
[20] = tested on: Escherichia coli JR66/W677; assay: as above; type: cell-based; details: Escherichia coli, JR66/W677, 18 h, read-out: Minimum Inhibitory Concentrations
[21] = tested on: Escherichia coli K-12; assay: as above; type: cell-based; details: Escherichia coli, K12, 18 h, read-out: Minimum Inhibitory Concentrations
[22] = tested on: Escherichia coli K-12 ML 1630; assay: as above; type: cell-based; details: K12ML1630, 37° C., 18 hours, read-out: Minimum Inhibitory Concentrations
Procedure: (§1) The minimum inhibitory concentrations (mcg./ml.) of 1N-(DL-isoseryl)-6'N-methyl-3',4'-dideoxykanamycin B (abbreviated as DL-IS-MDKB); 1N-(L-isoseryl)-6'N-methyl-3',4'-dideoxykanamycin B (abbreviated as L-IS-MDKB); 1N-(L-4-amino-[…])-6'N-methyl-3',4'-dideoxykanamycin B (abbreviated as AHB-MDKB); and 1N-(L-5-amino-2-hydroxyvaleryl)-6'N-methyl-3',4'-dideoxykanamycin B (abbreviated as AHV-MDBK) against various organisms were determined according to serial dilution method using nutrient agar medium at 37° C., the readings being made after 18 hours incubation. For the comparison purpose, the minimum inhibitory concentrations (mcg./ml.) of 1 N-(L-4-amino-2-hydroxybutyryl)-kanamycin A (abbreviated as AHB-KMA) and 1N-([…])-kanamycin B (abbreviated as AHB-KMB) which are known from U.S. Pat. No. 3,781,268 were also determined by the same manner as stated above.

[23] = tested on: Shigella flexneri 4b JS 11811; assay: as above; type: cell-based; details: 4BJS11811, 37° C., 18 hours, read-out: Minimum Inhibitory Concentrations
Procedure: as §1

[24] = tested on: Pseudomonas aeruginosa A3; assay: as above; type: cell-based; details: 37° C., 18 hours, read-out: Minimum Inhibitory Concentrations
Procedure: as §1

[25] = tested on: Klebsiella pneumoniae 22 No. 3038; assay: as above; type: cell-based; details: 37° C., 18 hours, read-out: Minimum Inhibitory Concentrations
Procedure: as §1

[26] = tested on: Shigella sonnei JS 11746; assay: as above; type: cell-based; details: JS11746, 37° C., 18 hours, read-out: Minimum Inhibitory Concentrations
Procedure: as §1

[27] = tested on: Mycobacterium smegmatis ATCC 607; assay: as above; type: cell-based; details: Mycolicibacterium smegmatis, ATCC607, 37° C., 18 hours, read-out: Minimum Inhibitory Concentrations
[28] = tested on: Bacillus anthracis; assay: microbe, parasite or virus in culture; type: cell-based; details: 18 h, read-out: Minimum Inhibitory Concentrations
[29] = tested on: Escherichia coli NIHJ; assay: Minimum inhibitory concentration, serial dilution method on nutrient agar; type: cell-based; details: Escherichia coli, 18 h, read-out: Minimum Inhibitory Concentrations
[30] = tested on: Escherichia coli K-12 ML 1410 R81; assay: as above; type: cell-based; details: 18 h, read-out: Minimum Inhibitory Concentrations
[31] = tested on: Escherichia coli K-12 ML 1410; assay: as above; type: cell-based; details: Escherichia coli, K12ML1410, 18 h, read-out: Minimum Inhibitory Concentrations
[32] = tested on: Escherichia coli LA290 R55; assay: as above; type: cell-based; details: LA290R55, 18 h, read-out: Minimum Inhibitory Concentrations
[33] = tested on: Bacillus cereus ATCC 10702; assay: as above; type: cell-based; details: Bacillus cereus, ATCC10702, 18 h, read-out: Minimum Inhibitory Concentrations
[34] = tested on: Escherichia coli K-12 ML 1629; assay: as above; type: cell-based; details: Escherichia coli, K12ML1629, 18 h, read-out: Minimum Inhibitory Concentrations
[35] = tested on: Escherichia coli LA290 R56; assay: as above; type: cell-based; details: LA290R56, 18 h, read-out: Minimum Inhibitory Concentrations
[36] = tested on: kanamycin-resistant bacteria; details: prior art statement; cited from earlier work

CNC[C@@H]1CC[C@@H](N)[C@@H](O[C@H]2[C@H](O)[C@@H](O[C@H]3O[C@H](CO)[C@@H](O)[C@H](N)[C@H]3O)[C@H](NC(=O)C(O)CN)C[C@@H]2N)O1 (mixture of isomers) [DL-IS-MDKB, 1N-(DL-isoseryl)-6'N-methyl-3',4'-dideoxykanamycin B]
MIC [1]: 0.78 mg/L | MIC [2]: 25 mg/L | MIC [3]: 3.13 mg/L | MIC [4]: 6.25 mg/L | MIC [5]: 1.56 mg/L | MIC [6]: < 0.2 mg/L | MIC [7]: < 0.2 mg/L | MIC [8]: 12.5 mg/L | MIC [9]: 6.25 mg/L | MIC [10]: 1.56 mg/L | MIC [11]: 3.13 mg/L | MIC [12]: 3.13 mg/L | MIC [13]: 1.56 mg/L | MIC [14]: < 0.2 mg/L | MIC [15]: 0.78 mg/L | MIC [16]: < 0.2 mg/L | MIC [17]: 1.56 mg/L | MIC [18]: 12.5 mg/L | MIC [19]: 6.25 mg/L | MIC [20]: 3.13 mg/L | MIC [21]: 1.56 mg/L | MIC [22]: 3.13 mg/L | MIC [23]: 3.13 mg/L | MIC [24]: 3.13 mg/L | MIC [25]: 3.13 mg/L | MIC [26]: 3.13 mg/L | MIC [27]: 0.39 mg/L | MIC [28]: < 0.2 mg/L | MIC [29]: 1.56 mg/L | MIC [30]: 3.13 mg/L | MIC [31]: 3.13 mg/L | MIC [32]: 3.13 mg/L | MIC [33]: 3.13 mg/L | MIC [34]: 1.56 mg/L | MIC [35]: 0.78 mg/L

NC[C@@H]1CC[C@@H](N)[C@@H](O[C@H]2[C@H](O)[C@@H](O[C@H]3O[C@H](CO)[C@@H](O)[C@H](N)[C@H]3O)[C@H](N)C[C@@H]2N)O1 [3',4'-dideoxykanamycin B, 3',4'-Dideoxykanamycin B]
activity against kanamycin-resistant bacteria [36]: active against a large number of kanamycin-resistant bacteria

CNC[C@@H]1CC[C@@H](N)[C@@H](O[C@H]2[C@H](O)[C@@H](O[C@H]3O[C@H](CO)[C@@H](O)[C@H](N)[C@H]3O)[C@H](N)C[C@@H]2N)O1 [6'N-methyl-3',4'-dideoxykanamycin B, 6'N-Methyl-3',4'-dideoxykanamycin B]
activity against kanamycin-resistant bacteria [36]: active against a large number of kanamycin-resistant bacteria
